# Laboratory results reported in patent US11213567B2, “ZAG-derived peptide and use thereof” (L&C Bio Co., LTD., priority 2017, dated 2022).
# What was measured:
# CCL17/TARC = experiment: Atopic dermatitis efficacy test using keratinocytes (HaCaT): CCL17/TARC released after TNF-α and IFN-γ, ELISA; type: cell-based, human; parameters: key to HaCaT (human) CCL17/TARC: •: have statistical significance, determining as effective, compared with the positive control; settings: Table 3; 1 μg/mL for 24 hours, then TNF-α 0.4 μg/mL, IFN-γ 0.4 μg/mL 24 hours; vs stimulator only
# Protocol: (§1) To select an amino acid sequence corresponding to a key active site of ZAG having efficacy in the alleviation of atopic symptoms from 18 peptide candidate groups, an atopic dermatitis efficacy test was performed. Five types of immune-related cells were treated with ZAG peptide candidate groups (Z1-Z18, SEQ ID NOs: 1 to 18, respectively) and the ZAG protein (Z0, SEQ ID NOs: 19) at a concentration of 1 μg/mL for 24 hours, and then treated with a stimulator suitable for each cell line for the listed time to confirm an immune response. The experiment was performed with a group treated with only a stimulator as a positive control experimental group, and a group treated with only a vehicle without a stimulator as a negative control experimental group (Table 2: Efficacy test method for atopic dermatitis). An inflammatory response-related enzyme used as a stimulator is produced by immune cells, and histamine initiates an inflammatory response. The immune cells migrating to a damaged region release cytokines such as tumor necrosis factor-α (TNF-α) and interleukin-6 (IL-6) to directly lyse foreign invasive substances or collect other immune cells to initiate an inflammatory response. An efficacy test using inflammation-inducing materials, interferon-γ and skin inflammation-related factor CCL-17/thymus- and activation-regulated chemokine (TARC) was also performed to confirm an immune response.
# Keratinocytes (HaCaT cells) were treated with 0.4 μg/mL of TNF-α and 0.4 μg/mL of IFN-γ as stimulators for 24 hours, and then a concentration of CCL17/TARC released in a cell culture medium was confirmed by ELISA assay.
# (§2) Various types of immune cells were treated with each of Z20mer-1, Z20mer-2, Z20mer-3, Z15mer-1, Z15mer-2, Z15mer-3 and Z15mer-4 at a concentration of 1 μg/mL for 24 hours, and then treated with a stimulator suitable for each cell line for the listed time to confirm an immune response. The atopic dermatitis efficacy test method was performed by the same method as described in Example 1 and Table 2.
# (§3) The experiment was performed with experimental groups: 1) negative control: vehicle-treated group (Neg), 2) positive control: a group treated with only a stimulator (Pos), and 3) experimental group: groups treated with a stimulator and ZAG3 or a ZAG3-derived oligopeptide (Z20mer-1, Z20mer-2, Z20mer-3, Z15mer-1, Z15mer-2, Z15mer-3 or Z15mer-4). Concentrations were measured from cell culture by ELISA.
# Histamine = experiment: Atopic dermatitis efficacy test using mast cells (RBL-2H3): histamine released after PMA and A23187, ELISA; type: cell-based, rat; parameters: key: •: have statistical significance, determining as effective, compared with the positive control; settings: 1 μg/mL for 24 hours, then PMA 1 μg/mL, A23187 1 μg/mL 12 hours
# Protocol: as §1
# Mast cells (RBL-2H3) were treated with 1 μg/mL of PMA and 1 μg/mL of A23187 as stimulators for 12 hours, and a concentration of histamine released in a cell culture medium was confirmed by ELISA assay.
# as §2, §3
# Mast cells (RBL-2H3) were treated with 1 μg/mL of PMA and 1 μg/mL of A23187 as simulators for 12 hours, and then a concentration of histamine released in a cell culture medium was confirmed by ELISA assay. As compared with the positive control (Pos), in all of the oligopeptide-treated groups, the histamine release was reduced (FIG. 2B).
# IL-6 = experiment: Atopic dermatitis efficacy test using macrophages (RAW 264.7): IL-6 released after LPS, ELISA; type: cell-based, mouse; parameters: key to RAW 264.7 (mouse) IL-6: •: have statistical significance, determining as effective, compared with the positive control; settings: for RAW 264.7 (mouse) IL-6: 1 μg/mL for 24 hours, then LPS 0.1 μg/mL 24 hours; for IL-6 concentration released in cell culture medium: Example 2-1, FIG. 2A, RAW 264.7, 1 μg/mL 24 hours, LPS 0.1 μg/mL 24 hours, compared with positive control (Pos)
# Protocol: as §1
# Macrophages (RAW 264.7 cells) were treated with a stimulator LPS at a concentration of 0.1 μg/mL for 24 hours, and then the concentration of IL-6 released in a cell culture medium was confirmed by ELISA assay.
# as §2, §3
# Macrophages (RAW 264.7 cells) were treated with a stimulator LPS at a concentration of 0.1 μg/mL for 24 hours, and then a concentration of IL-6 released in a cell culture medium was confirmed by ELISA assay.
# IL-4 = experiment: Atopic dermatitis efficacy test using T lymphocytes: IL-4 released after IL-2, ELISA; type: cell-based, human; parameters: key to T lymphocyte (human) IL-4: •: have statistical significance, determining as effective, compared with the positive control; settings: for IL-4 concentration released in cell culture medium: Example 1-5, FIG. 1E, IL-2 50 ng/mL 12 hours; for IL-4 concentration released in cell culture medium / IL-4: T lymphocytes, 1 μg/mL 24 hours; for T lymphocyte (human) IL-4: 1 μg/mL for 24 hours, then IL-2 50 ng/mL 12 hours; for IL-4: Example 2-5, FIG. 2E, compared with positive control (Pos)
# Protocol: as §1
# An atopic dermatitis efficacy test using T lymphocytes was performed with six peptide candidate groups (Z3, Z4, Z5, Z12, Z14, and Z15), which were determined to have efficacy from the results of Examples 1-1 to 1-4 described above. T lymphocytes were treated with 50 ng/mL of IL-2 as a stimulator for 12 hours, and a concentration of IL-4 released in a cell culture medium was confirmed by ELISA assay.
# as §2, §3
# An experiment was performed on T lymphocytes using the target peptides selected through the previous experiment. As compared with the positive control (Pos), in all of the oligopeptide-treated groups (Z20mer-1, Z20mer-2, Z20mer-3, Z15mer-1, Z15mer-2, Z15mer-3, and Z15mer-4), IL-4 was reduced (FIG. 2E).
# IgE = experiment: Atopic dermatitis efficacy test using B lymphocytes (RPMI 1788): IgE released after LPS, ELISA; type: cell-based, human; parameters: key: •: have statistical significance, determining as effective, compared with the positive control; settings: then LPS 0.1 μg/mL 24 hours
# Protocol: as §1
# (§4) B lymphocytes (RPMI 1788) were treated with 0.1 μg/mL of LPS as a stimulator for 24 hours, and a concentration of IgE released in a cell culture medium was confirmed by ELISA assay.
# as §2, §3
# as §4, with “and then” for “and”, “assay. As compared with the positive control (Pos), in all of the oligopeptide-treated groups, IgE was reduced (FIG. 2D).” for “assay.”
# [1] = Table 3, 1 μg/mL for 24 hours, vs stimulator only
# [2] = Table 5, 1 μg/mL for 24 hours, vs positive control
substance,measurement,setting,value
"Z1: ZAG protein-derived peptide, SEQ ID NO. 1: QENQDGRYSLTYIYTGLSKHVEDVPAFQAL (ZAG protein-derived peptide)",HaCaT (human) CCL17/TARC,CCL17/TARC,•
same,RBL-2H3 (rat) Histamine,"Histamine; Table 3, vs stimulator only",•
same,RAW 264.7 (mouse) IL-6,"IL-6; Table 3, vs stimulator only",•
"Z2: ZAG protein-derived peptide, SEQ ID NO. 2: GSLNDLQFFRYNSKDRKSQPMGLWRQVEGM (ZAG protein-derived peptide)",HaCaT (human) CCL17/TARC,CCL17/TARC,•
same,RBL-2H3 (rat) Histamine,"Histamine; Table 3, vs stimulator only",•
same,RAW 264.7 (mouse) IL-6,"IL-6; Table 3, vs stimulator only",•
"Z9: ZAG protein-derived peptide, SEQ ID NO. 9: TYQSWVVVAVPPQDTAPYSCHVQHSSLAQP (listed as Homo sapiens)",RBL-2H3 (rat) Histamine,"Histamine; Table 3, vs stimulator only",•
same,RAW 264.7 (mouse) IL-6,"IL-6; Table 3, vs stimulator only",•
"Z10: ZAG protein-derived peptide, SEQ ID NO. 10: GLSKHVEDVPAFQALGSLNDLQFFRYNSKD (ZAG protein-derived peptide)",HaCaT (human) CCL17/TARC,CCL17/TARC,•
same,RBL-2H3 (rat) Histamine,"Histamine; Table 3, vs stimulator only",•
same,RAW 264.7 (mouse) IL-6,"IL-6; Table 3, vs stimulator only",•
"Z11: ZAG protein-derived peptide, SEQ ID NO. 11: RKSQPMGLWRQVEGMEDWKQDSQLQKARED (ZAG protein-derived peptide)",RBL-2H3 (rat) Histamine,"Histamine; Table 3, vs stimulator only",•
"Z12: ZAG protein-derived peptide, SEQ ID NO. 12: PFDPAAQITKQKWEAEPVYVQRAKAYLEEE (ZAG protein-derived peptide)",HaCaT (human) CCL17/TARC,CCL17/TARC,•
same,IL-4 concentration released in cell culture medium,IL-4,significantly decreased
same,T lymphocyte (human) IL-4,"IL-4; Table 3, vs stimulator only",•
same,B lymphocyte (human) IgE,IgE; [1],•
"Z13: ZAG protein-derived peptide, SEQ ID NO. 13: CPATLRKYLKYSKNILDRQDPPSVVVTSHQ (ZAG protein-derived peptide)",HaCaT (human) CCL17/TARC,CCL17/TARC,•
same,B lymphocyte (human) IgE,IgE; [1],•
"Z15: ZAG protein-derived peptide, SEQ ID NO. 15: ENNRSSGAFWKYYYDGKDYIEFNKEIPAWV (listed as Homo sapiens)",IL-4 concentration released in cell culture medium,IL-4,significantly decreased
same,RBL-2H3 (rat) Histamine,"Histamine; Table 3, vs stimulator only",•
"Z15mer-1: ZAG3-derived oligopeptide, SEQ ID NO. 23: EDWKQDSQLQKARED (ZAG protein-derived peptide)",IL-4,IL-4,reduced
same,T lymphocyte (human) IL-4,"IL-4; Table 5, vs positive control",•
same,B lymphocyte (human) IgE,IgE; [2],•
same,RBL-2H3 (rat) Histamine,"Histamine; Table 5, vs positive control",•
same,IL-6 concentration released in cell culture medium,IL-6,significantly decreased
same,RAW 264.7 (mouse) IL-6,"IL-6; Table 5, vs positive control",•
"Z15mer-2: ZAG3-derived oligopeptide, SEQ ID NO. 24: DSQLQKAREDIFMET (ZAG protein-derived peptide)",IL-4,IL-4,reduced
same,T lymphocyte (human) IL-4,"IL-4; Table 5, vs positive control",•
same,B lymphocyte (human) IgE,IgE; [2],•
same,RBL-2H3 (rat) Histamine,"Histamine; Table 5, vs positive control",•
same,IL-6 concentration released in cell culture medium,IL-6,significantly decreased
same,RAW 264.7 (mouse) IL-6,"IL-6; Table 5, vs positive control",•
"Z16: ZAG protein-derived peptide, SEQ ID NO. 16: APGEKKKLKCLAYDFYPGKIDVHWTRAGEV (ZAG protein-derived peptide)",T lymphocyte (human) IL-4,"IL-4; Table 3, vs stimulator only",•
same,B lymphocyte (human) IgE,IgE; [1],•
"Z17: ZAG protein-derived peptide, SEQ ID NO. 17: QEPELRGDVLHNGNGTYQSWVVVAVPPQDT (ZAG protein-derived peptide)",B lymphocyte (human) IgE,IgE; [1],•
same,RBL-2H3 (rat) Histamine,"Histamine; Table 3, vs stimulator only",•
"Z20mer-2: ZAG3-derived oligopeptide, SEQ ID NO. 21: DSQLQKAREDIFMETLKDIV (ZAG protein-derived peptide)",IL-4,IL-4,reduced
same,T lymphocyte (human) IL-4,"IL-4; Table 5, vs positive control",•
same,B lymphocyte (human) IgE,IgE; [2],•
same,RBL-2H3 (rat) Histamine,"Histamine; Table 5, vs positive control",•
"Z20mer-3: ZAG3-derived oligopeptide, SEQ ID NO. 22: KAREDIFMETLKDIVEYYND (ZAG protein-derived peptide)",IL-4,IL-4,reduced
same,T lymphocyte (human) IL-4,"IL-4; Table 5, vs positive control",•
same,B lymphocyte (human) IgE,IgE; [2],•
same,RBL-2H3 (rat) Histamine,"Histamine; Table 5, vs positive control",•
same,IL-6 concentration released in cell culture medium,IL-6,significantly decreased
same,RAW 264.7 (mouse) IL-6,"IL-6; Table 5, vs positive control",•
